# Experimental data: PubChem BioAssay (NCI)
# Several values for one entry are separate records, joined by “and”; a condition that tells them apart may be missing. Identical values can stand only once.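 Interpolation was linear, between the two tested concentrations surrounding the appropriate level; five concentrations were tested over 48 hours in 96-well plates. Abbreviation: GI50, concentration required for 50% inhibition of growth. Definition used: TGI = concentration required for complete inhibition of growth.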
# Tests used:
# Experiment in all cases: NCI tumour cell line growth inhibition, 48 h
# [1] = tested on: DLD-1 colon
# [2] = tested on: DMS 114 small cell lung
# [3] = tested on: HCT-116 colon
# [4] = tested on: HCT-15 colon
# [5] = tested on: HL-60(TB) leukemia
# [6] = tested on: HT29 colon
# [7] = tested on: K-562 leukemia
# [8] = tested on: KM12 colon
# [9] = tested on: KM20L2 colon
# [10] = tested on: LOX IMVI melanoma
# [11] = tested on: LXFL 529 NSCLC
# [12] = tested on: MOLT-4 leukemia
# [13] = tested on: NCI-H522 lung
# [14] = tested on: OVCAR-5 ovarian
# [15] = tested on: RPMI-8226 leukemia
# [16] = tested on: SF-295 CNS
# [17] = tested on: SR leukemia
# [18] = tested on: 786-0 renal
# [19] = tested on: A549 NSCLC
# [20] = tested on: ACHN renal
# [21] = tested on: COLO 205 colon
# [22] = tested on: HOP-62 NSCLC
# [23] = tested on: HOP-92 NSCLC
# [24] = tested on: IGROV1 ovarian
# [25] = tested on: M14 melanoma
# [26] = tested on: M19-MEL melanoma
# [27] = tested on: NCI-H226 lung
# [28] = tested on: NCI-H23 lung
# [29] = tested on: NCI-H460 lung
# [30] = tested on: OVCAR-3 ovarian
# [31] = tested on: OVCAR-4 ovarian
# [32] = tested on: OVCAR-8 ovarian
# [33] = tested on: SF-268 CNS
# [34] = tested on: SF-539 CNS
# [35] = tested on: SK-MEL-28 melanoma
# [36] = tested on: SK-OV-3 ovarian
# [37] = tested on: SNB-19 CNS
# [38] = tested on: SNB-75 CNS
# [39] = tested on: SNB-78 CNS
# [40] = tested on: SW-620 colon
# [41] = tested on: TK-10 renal
# [42] = tested on: U251 CNS
# [43] = tested on: UACC-257 melanoma
# [44] = tested on: UACC-62 melanoma
# [45] = tested on: UO-31 renal
# [46] = tested on: A498 renal
# [47] = tested on: CAKI-1 renal
# [48] = tested on: CCRF-CEM leukemia
# [49] = tested on: DMS 273 small cell lung
# [50] = tested on: HCC-2998 colon
# [51] = tested on: HOP-18 NSCLC
# [52] = tested on: MALME-3M melanoma
# [53] = tested on: RXF 393 renal
# [54] = tested on: SK-MEL-2 melanoma
# [55] = tested on: SK-MEL-5 melanoma
# [56] = tested on: SN12C renal
# [57] = tested on: XF 498 CNS
structure (smiles),measurement,setting,value
CC1C(=O)C(C)C(c2ccccc2)N(C)C1c1ccccc1 (stereo not drawn),GI50,[1],26.2 µM and 85.4 µM
same,TGI,[1],> 100 µM
same,GI50,[2],30 µM and 75.1 µM
same,TGI,[2],99.7 µM and > 100 µM
same,GI50,[3],15.7 µM and 40.3 µM
same,TGI,[3],30.8 µM and > 100 µM
same,GI50,[4],23.6 µM and 61.1 µM
same,TGI,[4],81.8 µM and > 100 µM
same,TGI,[5],45.5 µM and > 100 µM
same,TGI,[6],91.4 µM and > 100 µM
same,GI50,[7],33.2 µM and 73.4 µM
same,TGI,[7],> 100 µM
same,GI50,[8],23.7 µM and 90.3 µM
same,TGI,[8],67.7 µM and > 100 µM
same,GI50,[9],32.8 µM and 85.8 µM
same,TGI,[9],> 100 µM
same,GI50,[10],15.8 µM and 86.2 µM
same,TGI,[10],31.4 µM and > 100 µM
same,GI50,[11],42.6 µM and 97.9 µM
same,TGI,[11],> 100 µM
same,TGI,[12],57.7 µM and > 100 µM
same,GI50,[13],21.6 µM and 63 µM
same,TGI,[13],52.5 µM and > 100 µM
same,TGI,[14],> 100 µM
same,TGI,[15],54.3 µM
same,GI50,[16],28 µM and 87.4 µM
same,TGI,[16],93.9 µM and > 100 µM
same,TGI,[17],48.2 µM and > 100 µM
Oc1ccccc1-c1n[nH]c(=S)n1/N=C/c1ccc(-c2ccc(Br)cc2)o1,TGI,[18],> 100 µM
same,TGI,[19],> 100 µM
same,TGI,[20],92 µM
same,TGI,[21],> 100 µM
same,TGI,[1],> 100 µM
same,TGI,[3],> 100 µM
same,TGI,[22],> 100 µM
same,TGI,[23],47.8 µM
same,TGI,[6],> 100 µM
same,TGI,[24],92.6 µM
same,TGI,[7],> 100 µM
same,TGI,[8],> 100 µM
same,TGI,[9],> 100 µM
same,TGI,[10],56.7 µM
same,TGI,[11],71.4 µM
same,TGI,[25],> 100 µM
same,TGI,[26],> 100 µM
same,TGI,[12],> 100 µM
same,TGI,[27],52.2 µM
same,TGI,[28],43.1 µM
same,TGI,[29],> 100 µM
same,TGI,[13],> 100 µM
same,TGI,[30],80.5 µM
same,TGI,[31],50.5 µM
same,TGI,[14],> 100 µM
same,TGI,[32],90.1 µM
same,TGI,[33],> 100 µM
same,TGI,[16],> 100 µM
same,TGI,[34],> 100 µM
same,TGI,[35],> 100 µM
same,TGI,[36],95.1 µM
same,TGI,[37],56.1 µM
same,TGI,[38],> 100 µM
same,TGI,[39],75.2 µM
same,TGI,[40],> 100 µM
same,TGI,[41],51.1 µM
same,TGI,[42],56.5 µM
same,TGI,[43],59.6 µM
same,TGI,[44],40.3 µM
same,TGI,[45],66.2 µM
c1ccc(COC2(OCc3ccccc3)CC3OC2C2NN=NC32)cc1 (stereo not drawn),TGI,[18],34.8 µM
same,TGI,[46],> 100 µM
same,TGI,[19],> 100 µM
same,TGI,[20],> 100 µM
same,TGI,[47],> 100 µM
same,TGI,[48],33.1 µM
same,TGI,[21],> 100 µM
same,TGI,[1],31.3 µM
same,TGI,[49],53.4 µM
same,TGI,[50],> 10 µM
same,TGI,[4],90.6 µM
same,TGI,[5],33.7 µM
same,TGI,[51],92.9 µM
same,TGI,[22],> 100 µM
same,TGI,[23],40.8 µM
same,TGI,[6],46.5 µM
same,TGI,[24],76.3 µM
same,TGI,[7],38.6 µM
same,TGI,[8],80.7 µM
same,TGI,[9],> 100 µM
same,TGI,[10],36.5 µM
same,TGI,[11],29.3 µM
same,TGI,[25],39.4 µM
same,TGI,[26],32.2 µM
same,TGI,[52],52.6 µM
same,TGI,[12],37.9 µM
same,TGI,[27],39.3 µM
same,TGI,[28],34.3 µM
same,TGI,[29],> 100 µM
same,TGI,[30],33.8 µM
same,TGI,[31],36.4 µM
same,TGI,[14],> 100 µM
same,TGI,[15],41.9 µM
same,TGI,[53],> 100 µM
same,TGI,[33],51 µM
same,TGI,[16],62.4 µM
same,TGI,[34],43.5 µM
same,TGI,[54],> 10 µM
same,TGI,[35],35.4 µM
same,TGI,[55],32.3 µM
same,TGI,[36],> 100 µM
same,TGI,[56],> 10 µM
same,TGI,[38],42.3 µM
same,TGI,[39],86.3 µM
same,TGI,[40],33.6 µM
same,TGI,[42],32.6 µM
same,TGI,[43],36.2 µM
same,TGI,[44],46.6 µM
same,TGI,[45],99.2 µM
same,TGI,[57],35 µM
